Measurements from ChEMBL document CHEMBL5331076, “Streptogramin A derivatives as mitochondrial translation inhibitors to suppress glioblastoma stem cell growth” (Eur J Med Chem, 2023).
Activity calls are given as the source filed them. No cut-off for these calls is given here.

Assays:
COMI [1] = assay: Growth inhibition of human COMI cells incubated for 48 hrs by Hoechst 33342/PI staining based analysis; assay type: functional
COMI [2] = assay: Growth inhibition of human COMI cells incubated for 48 hrs in the presence of quinupristin by Hoechst 33342/PI staining based analysis; assay type: functional
COMI [3] = assay: Inhibition of mitochondrial translation in human COMI cells assessed as decrease in ND3 expression level at 0.5 to 5 uM incubated for 48 hrs by immunoblotting analysis; assay type: functional, cell-based; details: dose 0.5-5 µM
COMI [4] = assay: Inhibition of mitochondrial translation in human COMI cells assessed as decrease in COX1 expression level at 0.5 to 5 uM incubated for 48 hrs by immunoblotting analysis; assay type: functional, cell-based; details: dose 0.5-5 µM
COMI [5] = assay: Inhibition of mitochondrial translation in human COMI cells assessed as decrease in COX2 expression level at 0.5 to 5 uM incubated for 48 hrs by immunoblotting analysis; assay type: functional, cell-based; details: dose 0.5-5 µM
COMI [6] = assay: Inhibition of mitochondrial translation in human COMI cells assessed as increase in COX4 expression level at 0.5 to 5 uM incubated for 48 hrs by immunoblotting analysis; assay type: functional, cell-based; details: dose 0.5-5 µM
COMI [7] = assay: Inhibition of mitochondrial translation in human COMI cells assessed as decrease in ND3 expression level incubated for 48 hrs by immunoblotting analysis; assay type: functional, cell-based
COMI [8] = assay: Inhibition of mitochondrial translation in human COMI cells assessed as decrease in COX1 expression level incubated for 48 hrs by immunoblotting analysis; assay type: functional, cell-based
COMI [9] = assay: Inhibition of mitochondrial translation in human COMI cells assessed as decrease in COX2 expression level incubated for 48 hrs by immunoblotting analysis; assay type: functional, cell-based
COMI [10] = assay: Inhibition of mitochondrial translation in human COMI cells assessed as increase in COX4 expression level incubated for 48 hrs by immunoblotting analysis; assay type: functional, cell-based
COMI [11] = assay: Growth inhibition of human COMI cells; assay type: functional
VIPI = assay: Growth inhibition of human VIPI cells; assay type: functional
COMI [12] = assay: Inhibition of mitochondrial translation in human COMI cells assessed as decrease in ND3 expression level at >25 uM incubated for 48 hrs by immunoblotting analysis; assay type: functional, cell-based
COMI [13] = assay: Inhibition of mitochondrial translation in human COMI cells assessed as decrease in COX1 expression level at >25 uM incubated for 48 hrs by immunoblotting analysis; assay type: functional, cell-based
COMI [14] = assay: Inhibition of mitochondrial translation in human COMI cells assessed as decrease in COX2 expression level at >25 uM incubated for 48 hrs by immunoblotting analysis; assay type: functional, cell-based
COMI [15] = assay: Inhibition of mitochondrial translation in human COMI cells assessed as increase in COX4 expression level at >25 uM incubated for 48 hrs by immunoblotting analysis; assay type: functional, cell-based

SMILES | GI50 (COMI [1]) [µM] | GI50 (COMI [2]) [µM] | inhibition (COMI [7]) | inhibition (COMI [8]) | inhibition (COMI [9]) | inhibition (COMI [10]) | other results
CN[C@H]1Cc2nc(co2)C(=O)N2CCC=C2C(=O)O[C@H](C(C)C)[C@H](C)/C=C/C(=O)NC/C=C/C(C)=C/[C@@H](O)C1 | 19.4 | 6.57 |  |  |  |  | inhibition (COMI [3]): inactive; inhibition (COMI [4]): inactive; inhibition (COMI [5]): inactive; inhibition (COMI [6]): inactive
CC1=C\[C@@H](O)C[C@@H](O)Cc2nc(co2)C(=O)N2CCC=C2C(=O)O[C@H](C(C)C)[C@H](C)/C=C/C(=O)NC\C=C\1 | 21.7 | 5.28 | Active | Active | Active | Active | 
CCN(CC)CCS(=O)(=O)[C@@H]1CCN2C(=O)c3coc(n3)C[C@@H](O)C[C@H](O)/C=C(C)/C=C/CNC(=O)/C=C/[C@@H](C)[C@@H](C(C)C)OC(=O)[C@@H]12 | 18.8 | 5.17 | Active | Active | Active | Active | 
CC1=CC2CNC(=O)/C=C/[C@@H](C)[C@@H](C(C)C)OC(=O)C3=CCCN3C(=O)c3coc(n3)CC(=O)C[C@H](O)C1C1C(=O)NC(=O)C21 (some centres undefined) | > 100 | 16.4 | inactive | inactive | inactive | inactive | 
CCN(CC)CCS(=O)(=O)[C@@H]1CCN2C(=O)c3coc(n3)CC(=O)C[C@H](O)C3C(C)=CC(CNC(=O)/C=C/[C@@H](C)[C@@H](C(C)C)OC(=O)[C@@H]12)C1C(=O)OC(=O)C13 (some centres undefined) | > 100 | 14.8 | inactive | inactive | inactive | inactive | 
Cn1nnc2c(C(N)=O)ncn2c1=O [TEMOZOLOMIDE] |  |  |  |  |  |  | GI50 (COMI [11]): 96.5 µM; GI50 (VIPI): 338 µM
CCN(CC)CCS(=O)(=O)[C@@H]1CCN2C(=O)c3coc(n3)C[C@H](F)C[C@H](O)/C=C(C)/C=C/CNC(=O)/C=C/[C@@H](C)[C@@H](C(C)C)OC(=O)[C@@H]12 | 6.73 | 5.71 |  |  |  |  | inhibition (COMI [3]): Active; inhibition (COMI [4]): Active; inhibition (COMI [5]): Active; inhibition (COMI [6]): Active
CCN(CC)CCS(=O)(=O)[C@@H]1CCN2C(=O)c3coc(n3)C[C@H](O)C[C@H](O)/C=C(C)/C=C/CNC(=O)/C=C/[C@@H](C)[C@@H](C(C)C)OC(=O)[C@@H]12 | 37.5 | 7.05 | Active | Active | Active | Active | 
CCN(CC)CCS(=O)(=O)[C@@H]1CCN2C(=O)c3coc(n3)CC(=O)C[C@H](O)C3C(C)=CC(CNC(=O)/C=C/[C@@H](C)[C@@H](C(C)C)OC(=O)[C@@H]12)C1C(=O)NC(=O)C13 (some centres undefined) | > 100 | 14.5 | inactive | inactive | inactive | inactive | 
CCN(CC)CCS[C@@H]1CCN2C(=O)c3coc(n3)CC(=O)C[C@H](O)/C=C(C)/C=C/CNC(=O)/C=C/[C@@H](C)[C@@H](C(C)C)OC(=O)[C@@H]12 | 7.02 | 8 |  |  |  |  | 
CC1=C\[C@@H](O)C[C@H](O)Cc2nc(co2)C(=O)N2CCC=C2C(=O)O[C@H](C(C)C)[C@H](C)/C=C/C(=O)NC\C=C\1 | 52.5 | 8.74 | Active | Active | Active | Active | 
CCN(CC)CCS(=O)(=O)[C@@H]1CCN2C(=O)c3coc(n3)C[C@@H](NC)C[C@H](O)/C=C(C)/C=C/CNC(=O)/C=C/[C@@H](C)[C@@H](C(C)C)OC(=O)[C@@H]12 | 1.56 | 1.32 |  |  |  |  | inhibition (COMI [3]): inactive; inhibition (COMI [4]): inactive; inhibition (COMI [5]): inactive; inhibition (COMI [6]): inactive
CCN(CC)CCOC1CCN2C(=O)c3coc(n3)C[C@H](O)C[C@H](O)/C=C(C)/C=C/CNC(=O)/C=C/[C@@H](C)[C@@H](C(C)C)OC(=O)C12 (some centres undefined) | 85.3 | 14 |  |  |  |  | inhibition (COMI [12]): Active; inhibition (COMI [13]): Active; inhibition (COMI [14]): Active; inhibition (COMI [15]): Active
CC1=C\C=C\C(=O)Cc2nc(co2)C(=O)N2CCC=C2C(=O)O[C@H](C(C)C)[C@H](C)/C=C/C(=O)NC\C=C\1 | 20.5 | 15.6 |  |  |  |  | 
CCN(CC)CCNC1CCN2C(=O)c3coc(n3)C[C@H](O)C[C@H](O)/C=C(C)/C=C/CNC(=O)/C=C/[C@@H](C)[C@@H](C(C)C)OC(=O)C12 (some centres undefined) | > 100 | 16.9 |  |  |  |  | inhibition (COMI [12]): Active; inhibition (COMI [13]): Active; inhibition (COMI [14]): Active; inhibition (COMI [15]): Active
CC1=C\[C@@H](O)C[C@H](F)Cc2nc(co2)C(=O)N2CCC=C2C(=O)O[C@H](C(C)C)[C@H](C)/C=C/C(=O)NC\C=C\1 | 36.1 | 12.3 | Active | Active | Active | Active | 
CC1=C\[C@@H](O)C[C@@H](F)Cc2nc(co2)C(=O)N2CCC=C2C(=O)O[C@H](C(C)C)[C@H](C)/C=C/C(=O)NC\C=C\1 | 4.82 | 5.42 |  |  |  |  | inhibition (COMI [3]): Active; inhibition (COMI [4]): Active; inhibition (COMI [5]): Active; inhibition (COMI [6]): Active
CC1=CC2CNC(=O)/C=C/[C@@H](C)[C@@H](C(C)C)OC(=O)C3=CCCN3C(=O)c3coc(n3)CC(=O)C[C@H](O)C1C1C(=O)OC(=O)C21 (some centres undefined) | > 100 | 19.6 | inactive | inactive | inactive | inactive | 
CCN(CC)CCS(=O)(=O)[C@@H]1CCN2C(=O)c3coc(n3)C[C@@H](F)C[C@H](O)/C=C(C)/C=C/CNC(=O)/C=C/[C@@H](C)[C@@H](C(C)C)OC(=O)[C@@H]12 | 20.5 | 8.37 | Active | Active | Active | Active | 
CCN(CC)CCS(=O)(=O)[C@@H]1CCN2C(=O)c3coc(n3)C[C@H](NC)C[C@H](O)/C=C(C)/C=C/CNC(=O)/C=C/[C@@H](C)[C@@H](C(C)C)OC(=O)[C@@H]12 | 14.2 | 4.85 |  |  |  |  | inhibition (COMI [3]): inactive; inhibition (COMI [4]): inactive; inhibition (COMI [5]): inactive; inhibition (COMI [6]): inactive
CC1=C\[C@@H](O)C[C@@H](F)Cc2nc(co2)C(=O)N2CCC[C@@H]2C(=O)O[C@H](C(C)C)[C@H](C)/C=C/C(=O)NC\C=C\1 | 7.37 | 5.83 |  |  |  |  | inhibition (COMI [3]): Active; inhibition (COMI [4]): Active; inhibition (COMI [5]): Active; inhibition (COMI [6]): Active
CC1=C\[C@@H](O)CC(=O)Cc2nc(co2)C(=O)N2CCC=C2C(=O)O[C@H](C(C)C)[C@H](C)/C=C/C(=O)NC\C=C\1 [VIRGINIAMYCIN FACTOR M1] | 17.1 | 7.25 |  |  |  |  | 
CN[C@@H]1Cc2nc(co2)C(=O)N2CCC=C2C(=O)O[C@H](C(C)C)[C@H](C)/C=C/C(=O)NC/C=C/C(C)=C/[C@@H](O)C1 | 1.16 | 1.5 |  |  |  |  | inhibition (COMI [3]): inactive; inhibition (COMI [4]): inactive; inhibition (COMI [5]): inactive; inhibition (COMI [6]): inactive
CCN(CC)CCS(=O)(=O)[C@@H]1CCN2C(=O)c3coc(n3)CC(=O)/C=C/C=C(C)/C=C/CNC(=O)/C=C/[C@@H](C)[C@@H](C(C)C)OC(=O)[C@@H]12 | 10.9 | 9.9 |  |  |  |  | 
